# Reference: patent US20230212180A1, “SUBSTITUTED PYRAZINE COMPOUND, PHARMACEUTICAL COMPOSITION COMPRISING SAME, AND USE THEREOF” (Sichuan Kelun-Biotech Biopharmaceutical Co., Ltd., priority 2020, published 2023)
# Like-named read-outs stand apart in the source and are kept apart here.
# Assays:
# [1] = Pharmacokinetic (PK) studies in Balb/c mouse; type: in vivo; settings: for AUC(0-t): read-out: AUClast; for half-life: read-out: T1/2 (converted)
# Method: Test Example 7: Pharmacokinetic (PK) Studies in Balb/c Mouse
# The compound of Example 12, Control Compound 1, Control Compound 2, and TNO-155 were administered to female Balb/c mice by intravenous injection (IV) and gavage (PO) respectively to estimate the pharmacokinetic properties. Dosing amounts for IV and PO routes were 1 mg/kg and 10 mg/kg, respectively. The solvent for IV route was 5% DMSO+5% Solutol+90% Saline, and the solvent for PO route was 0.5% MC (sodium methylcellulose). Blood was collected at various time points after IV and PO administration. The blood from the test groups of the compound of Example 12, Control Compound 1, and Control Compound 2 was anticoagulated using EDTA.K2 and preserved at −80° C. The blood from the test groups of TNO-155 was anticoagulated using EDTA.K2 and centrifuged to obtain plasma samples, and the plasma samples were preserved at −80° C.
# The blood or plasma samples were subjected to protein precipitation and then to the LC-MS/MS analysis. WinNonlin 6.3 software was used to calculate the pharmacokinetic parameters by non-compartmental model, and the results were listed in Table 7 below.
# KYSE-520 cell xenograft = assay: Tumor inhibition in KYSE-520 xenograft model; type: in vivo, nu-nu mice; settings: for TGI (%) (calculated by the tumor volume): once-daily oral, 21 consecutive days
# Method: Test Example 9: Experiment on Tumor Inhibition in KYSE-520 Xenograft Model
# A CDX xenograft animal model was established by subcutaneously inoculating KYSE-520 cells in nu-nu mice. After tumor formation, the mice were orally administered once daily to evaluate the in vivo drug efficacy of different test compounds.
# The KYSE-520 cells were subjected to monolayer in vitro culture. The culture conditions were as follows: 10% fetal bovine serum was added into the RPMI 1640 medium, and the cells were cultured in an incubator at 37° C. in air containing 5% CO2. The cells were digested twice a week with […] for passaging. When the cells were in exponential growth phase, the cells were harvested and counted. The KYSE-520 cell strains cultured to the logarithmic growth phase were prepared into a single cell suspension (the cells were resuspended in PBS and mixed with Matrigel Matrix Phenol Red-free at a ratio of 1:1, and the final concentration of the cells was 5×10^7/ml). Each of the nude mice was inoculated with 0.1 ml subcutaneously into the right axilla of the nude mice to establish a xenograft model of nude mice with esophageal cancer. When the tumors grew to 130 mm^3, the nude mice were randomly divided into 5 groups and administered. The dosage regime was as shown in Table 9 (once-daily oral administration for 21 consecutive days). The vehicle was 5% DMSO+5% Solutol+90% H2O.
# The animals were monitored daily for health and mortality. Routine inspections included observing the influences of drug treatment on the animals' daily behaviors, such as actions and activities, food (water) intake, physical signs, or other abnormalities, and recording them accordingly.
# Mice were weighed and tumor volumes were measured twice a week, and the data were recorded. The tumor volume (V) was calculated by the following equation: V=½×a×b^2, wherein a and b indicated the length and width, respectively.
# The anti-tumor efficacy was evaluated by tumor growth inhibition TGI (%). […] When the tumor regressed, TGI (%) (tumor volume)=100%−(TVt−TV0)/TV0×100%.
# CAMK1 (CaMK1) = target: T1, CAMK1 (CaMK1) (Homo sapiens, UniProt Q14012); assay: Kinase selectivity test (ThermoFisher); type: biochemical; design: concentration or dose not given beside the values
# T1 construct: purchased ThermoFisher USA (contract testing)
# T1 sequence (Q14012 whole entry): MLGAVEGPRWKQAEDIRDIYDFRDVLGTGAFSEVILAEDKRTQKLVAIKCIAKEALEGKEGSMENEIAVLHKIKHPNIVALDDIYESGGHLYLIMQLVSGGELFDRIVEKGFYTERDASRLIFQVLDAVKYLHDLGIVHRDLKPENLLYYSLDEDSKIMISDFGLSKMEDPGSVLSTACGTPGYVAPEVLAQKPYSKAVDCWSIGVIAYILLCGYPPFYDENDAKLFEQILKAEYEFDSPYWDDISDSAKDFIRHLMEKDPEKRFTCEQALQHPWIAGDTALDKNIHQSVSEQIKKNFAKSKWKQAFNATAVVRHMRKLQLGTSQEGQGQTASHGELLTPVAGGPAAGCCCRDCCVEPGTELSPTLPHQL
# Method: (§1) Test Example 11: Kinase Selectivity Test
# (§2) 1. Experimental Purpose: Tests for selectivity of the compounds of the present disclosure for a plurality of kinases were carried out to assess the safety risk of the compounds of the present disclosure.
# (§3) 2. Test institution: ThermoFisher USA
# (§4) 3. Testing methods: LanthaScreen binding, Z′-LYTE, Adapta
# (§5) 4. Test targets: 100 targets in total
# FLT3 = target: T2, FLT3 (Homo sapiens, UniProt P36888); assay: Kinase selectivity test (ThermoFisher); type: biochemical; design: concentration or dose not given beside the values
# T2 construct: purchased ThermoFisher USA (contract testing)
# T2 sequence (P36888 27-993): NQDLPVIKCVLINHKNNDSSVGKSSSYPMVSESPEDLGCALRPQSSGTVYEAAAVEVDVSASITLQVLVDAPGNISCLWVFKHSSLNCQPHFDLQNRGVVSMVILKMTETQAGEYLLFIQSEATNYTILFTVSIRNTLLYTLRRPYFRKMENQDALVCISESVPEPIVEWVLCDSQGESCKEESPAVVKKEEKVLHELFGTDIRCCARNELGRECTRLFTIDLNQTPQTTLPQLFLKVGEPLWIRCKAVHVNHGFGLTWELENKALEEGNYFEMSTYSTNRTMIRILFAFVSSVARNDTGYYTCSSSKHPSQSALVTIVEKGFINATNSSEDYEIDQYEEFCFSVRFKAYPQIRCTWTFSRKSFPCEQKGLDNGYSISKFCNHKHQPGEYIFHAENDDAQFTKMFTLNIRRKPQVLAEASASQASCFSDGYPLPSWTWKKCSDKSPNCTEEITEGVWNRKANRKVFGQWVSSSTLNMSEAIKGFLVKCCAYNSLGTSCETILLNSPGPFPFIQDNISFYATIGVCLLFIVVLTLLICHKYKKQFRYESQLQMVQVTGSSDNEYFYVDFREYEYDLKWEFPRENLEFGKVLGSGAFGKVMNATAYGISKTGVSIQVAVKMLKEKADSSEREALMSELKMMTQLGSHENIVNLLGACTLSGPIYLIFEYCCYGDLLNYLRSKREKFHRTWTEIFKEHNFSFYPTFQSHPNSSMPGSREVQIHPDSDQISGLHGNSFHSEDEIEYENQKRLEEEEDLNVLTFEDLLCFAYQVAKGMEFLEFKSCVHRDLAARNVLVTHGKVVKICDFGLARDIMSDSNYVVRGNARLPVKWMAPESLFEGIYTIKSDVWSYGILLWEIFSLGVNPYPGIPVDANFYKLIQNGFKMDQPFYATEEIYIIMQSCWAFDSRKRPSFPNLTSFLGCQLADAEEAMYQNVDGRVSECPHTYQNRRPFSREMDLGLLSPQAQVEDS
# Method: as §1, §2, §3, §4, §5
# GSK3B (GSK3 beta) = target: T3, GSK3B (GSK3 beta) (Homo sapiens, UniProt P49841); assay: Kinase selectivity test (ThermoFisher); type: biochemical; design: concentration or dose not given beside the values
# T3 construct: purchased ThermoFisher USA (contract testing)
# T3 sequence (P49841 whole entry): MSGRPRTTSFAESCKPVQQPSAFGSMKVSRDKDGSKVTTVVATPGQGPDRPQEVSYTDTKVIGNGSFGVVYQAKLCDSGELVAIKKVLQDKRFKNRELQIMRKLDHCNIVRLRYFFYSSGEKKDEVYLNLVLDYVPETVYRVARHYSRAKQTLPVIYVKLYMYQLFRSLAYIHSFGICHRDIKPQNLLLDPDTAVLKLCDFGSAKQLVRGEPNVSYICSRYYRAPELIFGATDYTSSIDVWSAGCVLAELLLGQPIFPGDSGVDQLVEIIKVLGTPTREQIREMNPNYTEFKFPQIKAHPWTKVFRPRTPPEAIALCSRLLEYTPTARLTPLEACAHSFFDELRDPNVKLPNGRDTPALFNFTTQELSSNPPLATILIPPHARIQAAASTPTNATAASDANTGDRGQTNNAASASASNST
# Method: as §1, §2, §3, §4, §5
# MET (cMet) = target: T4, MET (cMet) (Homo sapiens, UniProt P08581); assay: Kinase selectivity test (ThermoFisher); type: biochemical; design: concentration or dose not given beside the values
# T4 construct: purchased ThermoFisher USA (contract testing)
# T4 sequence (P08581 25-1390): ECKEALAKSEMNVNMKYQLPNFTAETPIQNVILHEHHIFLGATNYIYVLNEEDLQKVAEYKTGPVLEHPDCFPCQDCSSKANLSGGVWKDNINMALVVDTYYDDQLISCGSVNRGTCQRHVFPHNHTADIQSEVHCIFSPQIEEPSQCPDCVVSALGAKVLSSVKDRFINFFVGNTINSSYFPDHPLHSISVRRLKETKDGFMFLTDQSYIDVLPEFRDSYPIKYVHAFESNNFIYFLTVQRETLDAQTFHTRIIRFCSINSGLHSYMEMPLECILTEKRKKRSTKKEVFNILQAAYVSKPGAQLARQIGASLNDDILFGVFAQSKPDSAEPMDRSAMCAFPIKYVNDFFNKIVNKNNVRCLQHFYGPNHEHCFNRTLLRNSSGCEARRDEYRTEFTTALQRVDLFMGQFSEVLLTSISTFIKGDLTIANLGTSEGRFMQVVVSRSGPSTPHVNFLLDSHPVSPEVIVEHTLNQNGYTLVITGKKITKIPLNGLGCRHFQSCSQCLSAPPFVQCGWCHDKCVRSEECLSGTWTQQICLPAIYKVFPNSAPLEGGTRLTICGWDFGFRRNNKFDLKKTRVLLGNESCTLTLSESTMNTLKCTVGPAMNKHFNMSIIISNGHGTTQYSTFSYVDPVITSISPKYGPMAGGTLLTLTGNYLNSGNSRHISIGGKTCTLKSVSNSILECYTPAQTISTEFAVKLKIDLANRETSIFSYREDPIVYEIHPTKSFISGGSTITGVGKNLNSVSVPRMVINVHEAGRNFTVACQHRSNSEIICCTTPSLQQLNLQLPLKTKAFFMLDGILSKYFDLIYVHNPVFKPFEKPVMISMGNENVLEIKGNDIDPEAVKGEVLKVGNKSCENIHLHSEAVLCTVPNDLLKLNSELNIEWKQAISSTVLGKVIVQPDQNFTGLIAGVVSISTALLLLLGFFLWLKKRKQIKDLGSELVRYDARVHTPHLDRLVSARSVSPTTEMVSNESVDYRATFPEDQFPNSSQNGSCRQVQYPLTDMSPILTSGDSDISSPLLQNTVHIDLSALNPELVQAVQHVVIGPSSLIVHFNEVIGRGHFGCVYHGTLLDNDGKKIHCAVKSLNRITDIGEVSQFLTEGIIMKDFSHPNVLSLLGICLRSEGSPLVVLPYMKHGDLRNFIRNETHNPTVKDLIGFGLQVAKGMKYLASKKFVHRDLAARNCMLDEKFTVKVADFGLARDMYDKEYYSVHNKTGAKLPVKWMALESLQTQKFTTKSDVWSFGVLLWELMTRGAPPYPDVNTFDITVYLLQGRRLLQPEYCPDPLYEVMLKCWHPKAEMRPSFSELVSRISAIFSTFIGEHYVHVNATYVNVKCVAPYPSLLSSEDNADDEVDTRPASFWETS
# Method: as §1, §2, §3, §4, §5
# [2] = mouse, in vivo, female Balb/c mice, PO, 10 mg/kg, blood (TNO-155: plasma)
# [3] = mouse, whole blood (TNO-155: plasma), female Balb/c mice, PO, 10 mg/kg, blood (TNO-155: plasma)
SMILES,TGI (%) (calculated by the tumor volume) (KYSE-520 cell xenograft; 10 mpk),TGI (%) (calculated by the tumor volume) (KYSE-520 cell xenograft; 30 mpk),Inhibition (%) Target 1 (CAMK1 (CaMK1)) [%],Inhibition (%) Target 2 (CAMK1 (CaMK1)) [%],Inhibition (%) Mean value (CAMK1 (CaMK1)) [%],Inhibition (%) Target 1 (FLT3) [%],Inhibition (%) Target 2 (FLT3) [%],Inhibition (%) Mean value (FLT3) [%],Inhibition (%) Target 1 (GSK3B (GSK3 beta)) [%],Inhibition (%) Target 2 (GSK3B (GSK3 beta)) [%],Inhibition (%) Mean value (GSK3B (GSK3 beta)) [%],Inhibition (%) Target 1 (MET (cMet)) [%],Inhibition (%) Target 2 (MET (cMet)) [%],Inhibition (%) Mean value (MET (cMet)) [%],further results
"C[C@@H]1OCC2(CCN(c3ncc(Sc4ccnc(N5CC(C(C)(C)O)C5)c4Cl)nc3CO)CC2)[C@@H]1N [Example 12, 2-(1-(4-(5-((3S,4S)-4-amino-3-methyl-2-oxa-8-azaspiro[4.5]decan-8-yl)-6-(hydroxymethyl)pyrazin-2-ylthio)-3-chloropyridin-2-yl)azetidin-3-yl)propan-2-ol]",81.28,96.93,−9,−16,−12,11,8,9,7,7,7,−1,16,7,"pharmacokinetic properties (in words) ([1]; Balb/c mice, 1 mg/kg by injection and 10 mg/Kg by mouth): excellent pharmacokinetic properties; AUC(0-t) ([1]; mouse, in vivo, female Balb/c mice, IV, 1 mg/kg, blood (TNO-155: plasma)): 2590 ng·h/mL; clearance ([1]; mouse, in vivo, female Balb/c mice, IV, 1 mg/kg, blood (TNO-155: plasma), read-out: Cl): 6.23 mL/min/kg; AUC(0-t) [1, 2]: 12300 ng·h/mL; half-life [1, 2]: 7.13 h; tumor inhibitory effect (in words) (KYSE-520 cell xenograft; oral administration for 21 consecutive days): remarkable tumor inhibitory effect"
"C[C@@H]1OCC2(CCN(c3cnc(Sc4ccnc(N)c4Cl)c(N)n3)CC2)[C@@H]1N [TNO-155, reference compound]",55.49,72.74,55,46,51,96,97,97,96,96,96,42,40,41,"Cl ([1]; female Balb/c mice, IV, 1 mg/kg, blood (TNO-155: plasma)): 24 mL/min/kg; AUC(0-t) ([1]; mouse, whole blood (TNO-155: plasma), female Balb/c mice, IV, 1 mg/kg, blood (TNO-155: plasma)): 672 ng·h/mL; AUC(0-t) [1, 3]: 7910 ng·h/mL; half-life [1, 3]: 1.69 h"
